Measurements from patent US7947741B2, “Use and administration of bacterial efflux pump inhibitors” (Mpex Pharmaceuticals, Inc., priority 2004, dated 2011).
In brackets after ≈: the same amount, converted by molar mass. Like-named read-outs stand apart in the source and are kept apart here.

Tests used:
[1] = test system: P. aeruginosa PAM1154 (MexAB-OprM deleted); assay type: cell-based, Pseudomonas aeruginosa
[2] = test system: P. aeruginosa PAM1723 (MexAB-OprM overexpressed); assay type: cell-based, Pseudomonas aeruginosa; settings: for MIC, No Pentamidine / MIC, Pentamidine (40 μg/ml): PAM1723 (MexAB-OprM overexpressed); for MIC, Pentamidine (40 μg/ml): in the presence of pentamidine 40 μg/ml
[3] = target: MexAB-OprM-mediated efflux of Leu-Nap, PAM1723 cells (Pseudomonas aeruginosa, UniProt P52002); test: Leu-Nap accumulation assay; assay type: cell-based; settings: Leu-Nap 100 μg/ml
[4] = test system: P. aeruginosa PAM1626 (lacks all the three efflux pumps); test: microbe, parasite or virus in culture; assay type: cell-based, Pseudomonas aeruginosa; settings: for Levofloxacin MIC in the presence of inhibitor: PAM1626; for MIC: Pseudomonas aeruginosa, read-out: MIC* (MIC for the efflux pump inhibitor)
[5] = test system: P. aeruginosa PAM1723 (nalB, overexpressing MexAB-OprM); test: microbe, parasite or virus in culture; assay type: cell-based, Pseudomonas aeruginosa; settings: for Levofloxacin MIC in the presence of inhibitor: PAM1723; for MIC: Pseudomonas aeruginosa, read-out: MIC* (MIC for the efflux pump inhibitor), PAM1723, inhibitor alone
Description: (§1) Stock solutions were further diluted, according to the needs of a particular assay, in Mueller Hinton Broth (MHB). Stock solution was stored at −80° C.
(§2) The checkerboard assay was performed in microtiter plates. […] The result of these manipulations is that each well of the microtiter plate contains a unique combination of concentrations of the two agents. The assay was performed in MHB with a final bacterial inoculum of 5×10^5 CFU/ml (from an early-log phase culture). Microtiter plates were incubated during 20 h at 35° C. and were read using a microtiterplate reader (Molecular Devices) at 650 nm as well as visual observation using a microtiter plate reading mirror.
(§3) The test organisms used was PAM1020, which is a wild type strain of P. aeruginosa expressing the basal level of MexAB-OprM, as well as PAM1723, PAM1738, and PAM1753, overexpressing the MexAB-OprM, MexCD-OprJ, and MexEF-OprN pump, respectively.
Efflux pump inhibitory activity of several commercially available diamidine analogs was evaluated using the checkerboard assay of Example 1 against the strain of P. aeruginosa overexpressing the MexAB-OprM efflux pump.

[6] = test system: P. aeruginosa PAM1738 (nfxB, overexpressing MexCD-OprJ); test: microbe, parasite or virus in culture; assay type: cell-based, Pseudomonas aeruginosa; settings: for Levofloxacin MIC in the presence of inhibitor: PAM1738; for MIC: Pseudomonas aeruginosa, read-out: MIC* (MIC for the efflux pump inhibitor)
Description: as §1, §2, §3

[7] = test system: P. aeruginosa PAM1020 (wt, basal level of MexAB-OprM); test: Levofloxacin potentiation checkerboard assay (broth microdilution); assay type: cell-based, Pseudomonas aeruginosa; settings: PAM1020; for MIC: Pseudomonas aeruginosa, inhibitor alone, read-out: MIC* (MIC for the efflux pump inhibitor)
Description: as §1, §2, §3

[8] = test system: P. aeruginosa PAM1753 (nfxC, overexpressing MexEF-OprN); test: as above; assay type: cell-based, Pseudomonas aeruginosa; settings: for Levofloxacin MIC in the presence of inhibitor: PAM1753; for MIC: Pseudomonas aeruginosa, read-out: MIC* (MIC for the efflux pump inhibitor)
Description: as §1, §2, §3

[9] = intravenous infusion; cited from earlier work

Chain of MexAB-OprM-mediated efflux of Leu-Nap, PAM1723 cells (Q51487 18-485): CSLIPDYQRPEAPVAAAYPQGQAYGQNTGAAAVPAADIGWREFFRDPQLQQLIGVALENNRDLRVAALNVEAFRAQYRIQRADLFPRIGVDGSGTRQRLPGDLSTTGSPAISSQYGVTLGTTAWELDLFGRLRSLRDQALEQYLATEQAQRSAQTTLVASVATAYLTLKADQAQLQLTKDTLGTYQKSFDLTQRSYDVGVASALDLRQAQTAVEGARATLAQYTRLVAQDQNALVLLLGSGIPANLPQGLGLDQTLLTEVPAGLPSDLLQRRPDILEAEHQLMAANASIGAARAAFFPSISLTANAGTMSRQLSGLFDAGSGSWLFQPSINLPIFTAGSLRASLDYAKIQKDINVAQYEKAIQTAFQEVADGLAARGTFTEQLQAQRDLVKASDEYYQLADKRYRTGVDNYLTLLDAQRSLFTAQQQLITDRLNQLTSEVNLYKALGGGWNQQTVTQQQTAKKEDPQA
Chain of MexAB-OprM-mediated efflux of Leu-Nap, PAM1723 cells (P52002 whole entry): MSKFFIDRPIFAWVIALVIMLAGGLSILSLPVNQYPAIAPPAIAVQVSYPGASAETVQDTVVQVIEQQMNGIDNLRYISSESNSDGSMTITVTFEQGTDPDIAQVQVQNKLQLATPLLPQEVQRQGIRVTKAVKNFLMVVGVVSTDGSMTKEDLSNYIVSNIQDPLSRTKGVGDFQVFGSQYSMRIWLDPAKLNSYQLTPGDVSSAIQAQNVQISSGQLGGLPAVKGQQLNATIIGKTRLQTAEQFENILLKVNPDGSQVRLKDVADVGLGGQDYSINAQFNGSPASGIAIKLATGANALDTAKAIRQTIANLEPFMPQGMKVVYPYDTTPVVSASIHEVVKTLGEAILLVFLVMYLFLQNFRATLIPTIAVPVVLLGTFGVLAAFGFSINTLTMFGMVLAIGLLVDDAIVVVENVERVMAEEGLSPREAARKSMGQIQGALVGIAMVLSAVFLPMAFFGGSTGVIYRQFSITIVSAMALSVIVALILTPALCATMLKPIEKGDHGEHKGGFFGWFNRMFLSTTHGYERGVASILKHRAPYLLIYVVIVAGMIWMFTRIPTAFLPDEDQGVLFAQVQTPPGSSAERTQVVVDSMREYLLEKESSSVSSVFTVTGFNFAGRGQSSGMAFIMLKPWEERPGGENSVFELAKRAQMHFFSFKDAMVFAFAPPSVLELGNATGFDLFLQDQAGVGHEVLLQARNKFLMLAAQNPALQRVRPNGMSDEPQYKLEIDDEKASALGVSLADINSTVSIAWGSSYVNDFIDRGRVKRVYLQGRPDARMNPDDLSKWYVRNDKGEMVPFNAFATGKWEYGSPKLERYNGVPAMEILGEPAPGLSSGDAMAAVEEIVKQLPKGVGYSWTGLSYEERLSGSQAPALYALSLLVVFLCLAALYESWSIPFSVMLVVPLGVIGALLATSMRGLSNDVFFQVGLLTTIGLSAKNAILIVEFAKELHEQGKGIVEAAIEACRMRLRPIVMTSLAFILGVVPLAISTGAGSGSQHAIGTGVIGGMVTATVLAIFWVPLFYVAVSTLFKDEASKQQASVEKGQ
Chain of MexAB-OprM-mediated efflux of Leu-Nap, PAM1723 cells (P52477 24-383, further chain): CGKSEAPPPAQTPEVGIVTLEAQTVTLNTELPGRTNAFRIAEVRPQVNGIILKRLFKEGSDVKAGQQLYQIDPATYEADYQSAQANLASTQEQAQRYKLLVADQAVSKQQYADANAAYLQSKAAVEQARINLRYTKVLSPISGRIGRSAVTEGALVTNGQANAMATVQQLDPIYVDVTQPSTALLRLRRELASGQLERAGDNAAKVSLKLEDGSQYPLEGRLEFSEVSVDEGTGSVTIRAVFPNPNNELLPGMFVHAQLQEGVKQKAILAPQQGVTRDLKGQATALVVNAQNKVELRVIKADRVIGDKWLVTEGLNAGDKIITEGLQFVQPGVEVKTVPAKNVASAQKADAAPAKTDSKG

Row | SMILES | MIC, No Pentamidine [1] | MIC, No Pentamidine [2] | MIC, Pentamidine (40 μg/ml) [2] | decrease of the MIC by pentamidine ([2]; PAM1723, pentamidine 40 μg/ml) | inhibitor concentration at which rate of Leu-Nap uptake in PAM1723 and PAM1626 is the same (complete inhibition of efflux) [3] | Levofloxacin MIC in the presence of inhibitor ([4]; inhibitor 1.25 μg/ml) | MIC [4] | Levofloxacin MIC in the presence of inhibitor ([5]; inhibitor 1.25 μg/ml) | Levofloxacin MIC in the presence of inhibitor ([5]; inhibitor 2.5 μg/ml) | Levofloxacin MIC in the presence of inhibitor ([5]; inhibitor 5 μg/ml) | Levofloxacin MIC in the presence of inhibitor ([5]; inhibitor 10 μg/ml) | Levofloxacin MIC in the presence of inhibitor ([5]; inhibitor 20 μg/ml) | Levofloxacin MIC in the presence of inhibitor ([5]; inhibitor 40 μg/ml) | MIC [5] | Levofloxacin MIC in the presence of inhibitor ([6]; inhibitor 1.25 μg/ml) | Levofloxacin MIC in the presence of inhibitor ([6]; inhibitor 2.5 μg/ml) | Levofloxacin MIC in the presence of inhibitor ([6]; inhibitor 5 μg/ml) | Levofloxacin MIC in the presence of inhibitor ([6]; inhibitor 10 μg/ml) | Levofloxacin MIC in the presence of inhibitor ([6]; inhibitor 20 μg/ml) | MIC [6] | other results
1 | CC[C@H]1OC(=O)[C@H](C)[C@@H](O[C@H]2C[C@@](C)(OC)[C@@H](O)[C@H](C)O2)[C@H](C)[C@@H](O[C@@H]2O[C@H](C)C[C@H](N(C)C)[C@H]2O)[C@](C)(O)C[C@@H](C)CN(C)[C@H](C)[C@@H](O)[C@]1(C)O [Azithro, azithromycin] | 0.5 µg/mL (≈ 0.668 µM) | 64 µg/mL (≈ 85.4 µM) | 1 | 64 fold |  |  |  |  |  |  |  |  |  |  |  |  |  |  |  |  | 
2 | O=C(N[C@H](CO)[C@H](O)c1ccc([N+](=O)[O-])cc1)C(Cl)Cl [Cm, chloramphenicol] | 1 µg/mL (≈ 3.09 µM) | 128 µg/mL (≈ 396 µM) | 8 | 16 fold |  |  |  |  |  |  |  |  |  |  |  |  |  |  |  |  | 
3 | N=C(N)c1ccc(OCCCOc2ccc(C(=N)N)cc2Br)c(Br)c1 [Dibromopropamidine, dibromopropamidine] |  |  |  |  | 20 µg/mL | 0.0075 µg/mL | 5 µg/mL (≈ 10.6 µM) | 2 µg/mL | 1 µg/mL | 0.5 µg/mL | 0.125 µg/mL | 0.06 µg/mL | 0.06 µg/mL | 80 µg/mL | 0.5 µg/mL | 0.25 µg/mL | 0.125 µg/mL | 0.06 µg/mL | 0.03 µg/mL | 80 µg/mL | Levofloxacin MIC in the presence of inhibitor ([4]; inhibitor 2.5 μg/ml): 0.007 µg/mL; Levofloxacin MIC in the presence of inhibitor ([6]; inhibitor 40 μg/ml): 0.03 µg/mL; Levofloxacin MIC in the presence of inhibitor ([7]; inhibitor 1.25 μg/ml): 0.25 µg/mL; Levofloxacin MIC in the presence of inhibitor ([7]; inhibitor 2.5 μg/ml): 0.25 µg/mL; Levofloxacin MIC in the presence of inhibitor ([7]; inhibitor 5 μg/ml): 0.125 µg/mL; Levofloxacin MIC in the presence of inhibitor ([7]; inhibitor 10 μg/ml): 0.06 µg/mL; Levofloxacin MIC in the presence of inhibitor ([7]; inhibitor 20 μg/ml): 0.03 µg/mL; Levofloxacin MIC in the presence of inhibitor ([7]; inhibitor 40 μg/ml): 0.03 µg/mL; MIC [7]: 80 µg/mL; Levofloxacin MIC in the presence of inhibitor ([8]; inhibitor 1.25 μg/ml): 2 µg/mL; Levofloxacin MIC in the presence of inhibitor ([8]; inhibitor 2.5 μg/ml): 1 µg/mL; Levofloxacin MIC in the presence of inhibitor ([8]; inhibitor 5 μg/ml): 0.5 µg/mL; Levofloxacin MIC in the presence of inhibitor ([8]; inhibitor 10 μg/ml): 0.125 µg/mL; MIC [8]: 20 µg/mL
4 | CC[C@H]1OC(=O)[C@H](C)[C@@H](O[C@H]2C[C@@](C)(OC)[C@@H](O)[C@H](C)O2)[C@H](C)[C@@H](O[C@@H]2O[C@H](C)C[C@H](N(C)C)[C@H]2O)[C@](C)(O)C[C@@H](C)C(=O)[C@H](C)[C@@H](O)[C@]1(C)O [Erm, erythromycin] | 8 µg/mL (≈ 10.9 µM) |  | 64 | 4 fold |  |  |  |  |  |  |  |  |  |  |  |  |  |  |  |  | 
5 | N=C(N)c1ccc(OCCCCCCOc2ccc(C(=N)N)cc2)cc1 [Hexamidine, hexamidine] |  |  |  |  | 20 µg/mL | 0.007 µg/mL | 2.5 µg/mL (≈ 7.05 µM) | 2 µg/mL | 1 µg/mL | 1 µg/mL | 0.125 µg/mL | 0.015 µg/mL |  | 40 µg/mL | 0.5 µg/mL | 0.5 µg/mL | 0.25 µg/mL | 0.06 µg/mL | 0.015 µg/mL | 80 µg/mL | Levofloxacin MIC in the presence of inhibitor ([6]; inhibitor 40 μg/ml): 0.007 µg/mL; Levofloxacin MIC in the presence of inhibitor ([7]; inhibitor 1.25 μg/ml): 0.125 µg/mL; Levofloxacin MIC in the presence of inhibitor ([7]; inhibitor 2.5 μg/ml): 0.125 µg/mL; Levofloxacin MIC in the presence of inhibitor ([7]; inhibitor 5 μg/ml): 0.03 µg/mL; Levofloxacin MIC in the presence of inhibitor ([7]; inhibitor 10 μg/ml): 0.007 µg/mL; MIC [7]: 20 µg/mL; Levofloxacin MIC in the presence of inhibitor ([8]; inhibitor 1.25 μg/ml): 2 µg/mL; Levofloxacin MIC in the presence of inhibitor ([8]; inhibitor 2.5 μg/ml): 2 µg/mL; Levofloxacin MIC in the presence of inhibitor ([8]; inhibitor 5 μg/ml): 1 µg/mL; Levofloxacin MIC in the presence of inhibitor ([8]; inhibitor 10 μg/ml): 0.25 µg/mL; MIC [8]: 20 µg/mL
6 | N=C(N)c1ccc(/N=N/Nc2ccc(C(=N)N)cc2)cc1 [MP 601206] |  |  |  |  |  |  |  | 2 µg/mL | 2 µg/mL | 1 µg/mL | 1 µg/mL | 0.5 µg/mL | 0.06 µg/mL | 80 µg/mL |  |  |  |  |  |  | 
7 | Cl.Cl.N=C(N)c1cccc(NC(=O)Nc2cccc(C(=N)N)c2)c1 [MP 601319] |  |  |  |  |  |  |  | 2 µg/mL | 2 µg/mL | 2 µg/mL | 2 µg/mL | 1 µg/mL | 0.25 µg/mL | > 80 µg/mL |  |  |  |  |  |  | Levofloxacin MIC in the presence of inhibitor ([5]; inhibitor 80 μg/ml): 0.125 µg/mL
8 | N=C(N)c1ccc(OCCCOc2ccc(C(=N)N)cc2)cc1 [Propamidine, propamidine] |  |  |  |  | 160 µg/mL | 0.015 µg/mL | 10 µg/mL (≈ 32 µM) | 2 µg/mL | 2 µg/mL | 1 µg/mL | 0.5 µg/mL | 0.25 µg/mL |  | 40 µg/mL | 0.5 µg/mL | 0.5 µg/mL | 0.25 µg/mL | 0.125 µg/mL | 0.015 µg/mL | 40 µg/mL | Levofloxacin MIC in the presence of inhibitor ([4]; inhibitor 2.5 μg/ml): 0.007 µg/mL; Levofloxacin MIC in the presence of inhibitor ([4]; inhibitor 5 μg/ml): 0.007 µg/mL; Levofloxacin MIC in the presence of inhibitor ([7]; inhibitor 1.25 μg/ml): 0.25 µg/mL; Levofloxacin MIC in the presence of inhibitor ([7]; inhibitor 2.5 μg/ml): 0.125 µg/mL; Levofloxacin MIC in the presence of inhibitor ([7]; inhibitor 5 μg/ml): 0.125 µg/mL; Levofloxacin MIC in the presence of inhibitor ([7]; inhibitor 10 μg/ml): 0.06 µg/mL; Levofloxacin MIC in the presence of inhibitor ([7]; inhibitor 20 μg/ml): 0.03 µg/mL; MIC [7]: 40 µg/mL; Levofloxacin MIC in the presence of inhibitor ([8]; inhibitor 1.25 μg/ml): 4 µg/mL; Levofloxacin MIC in the presence of inhibitor ([8]; inhibitor 2.5 μg/ml): 2 µg/mL; MIC [8]: 5 µg/mL
9 | NC[C@H]1O[C@H](O[C@H]2[C@H](O)[C@@H](O[C@H]3O[C@H](CO)[C@@H](O)[C@H](N)[C@H]3O)[C@H](N)C[C@@H]2N)[C@H](N)C[C@@H]1O [Tb, tobramycin] | 0.03 µg/mL (≈ 0.0642 µM) | 0.06 µg/mL (≈ 0.128 µM) | 0.03 |  |  |  |  |  |  |  |  |  |  |  |  |  |  |  |  |  | decrease of the MIC by pentamidine [2]: almost no effect
10 | N=C(N)c1ccc(OCCCCCOc2ccc(C(=N)N)cc2)cc1 [pentamidine isethionate, 4,4′-diamidino-diphenoxypentane di(β-hydroxyethanesulfonate)] |  |  |  |  |  |  |  |  |  |  |  |  |  |  |  |  |  |  |  |  | plasma levels during the first two hours following an intravenous infusion [9]: one-twentieth of peak levels
